Measured values reported in US9708321B2, “Spiro-quinazolinone derivatives and their use as positive allosteric modulators of mGluR4” (Merck Patent GmbH, priority 2013, dated 2017).

biological target: T1, hmGluR4 (Homo sapiens, UniProt Q14833); assay: HEK-293 mGluR4 cells cAMP assay with EC20 L-Glutamate (HTRF); type: cell-based; conditions: positive allosteric activity at EC20 L-Glutamate, 10 μM Forskolin, HEK293T mGluR4 cells, cAMP HTRF; read-out: hrmGluR4/HEK293T-hmGluR4 (EC50)
T1 construct: host or cells: HEK293T
How it was run: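 PAM mode in mGluR4 HEK293T suspension cells, glutamine-starved overnight; 10 μM forskolin (final) with EC20 L-glutamate (2.3 μM), 2000 cells/well, 30 min at 37 °C. cAMP measured by two-step HTRF after 60 min at room temperature. Basal control EC20 glutamate; EC100 400 μM glutamate (2×).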

T1 sequence (Q14833 33-912): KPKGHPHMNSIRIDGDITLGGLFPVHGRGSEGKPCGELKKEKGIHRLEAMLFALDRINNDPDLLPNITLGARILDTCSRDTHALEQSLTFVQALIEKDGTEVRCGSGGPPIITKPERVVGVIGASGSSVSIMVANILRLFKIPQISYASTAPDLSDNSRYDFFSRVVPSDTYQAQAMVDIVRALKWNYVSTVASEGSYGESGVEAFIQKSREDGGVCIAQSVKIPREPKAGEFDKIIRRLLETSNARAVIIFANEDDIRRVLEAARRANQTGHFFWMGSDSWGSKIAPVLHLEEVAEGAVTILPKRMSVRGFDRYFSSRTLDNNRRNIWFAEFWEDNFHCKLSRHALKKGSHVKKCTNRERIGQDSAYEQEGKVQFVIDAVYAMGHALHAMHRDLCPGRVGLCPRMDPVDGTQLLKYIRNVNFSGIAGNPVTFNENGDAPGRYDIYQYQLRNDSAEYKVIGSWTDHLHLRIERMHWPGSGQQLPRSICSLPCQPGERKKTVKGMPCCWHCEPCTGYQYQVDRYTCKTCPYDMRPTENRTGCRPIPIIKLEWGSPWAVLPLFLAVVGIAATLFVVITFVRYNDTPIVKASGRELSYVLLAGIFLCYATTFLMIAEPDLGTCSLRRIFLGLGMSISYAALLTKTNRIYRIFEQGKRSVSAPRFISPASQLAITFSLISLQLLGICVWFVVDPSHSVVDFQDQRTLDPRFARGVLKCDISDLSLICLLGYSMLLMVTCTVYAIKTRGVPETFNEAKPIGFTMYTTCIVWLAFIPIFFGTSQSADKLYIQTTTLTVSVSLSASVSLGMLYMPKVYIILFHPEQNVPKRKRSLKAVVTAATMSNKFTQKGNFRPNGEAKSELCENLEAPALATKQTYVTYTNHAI

Structure (SMILES) | EC50
CN(C)Cc1ccc(-c2ccc3c(c2)NC2(CCN(Cc4ccc(F)c(F)c4)CC2)N(c2ccc(OC(F)(F)F)cc2)C3=O)o1 [Compound 74, 1-(3,4-Difluorobenzyl)-7′-(5-((dimethylamino)methyl)furan-2-yl)-3′-(4-(trifluoromethoxy)phenyl)-1′H-spiro[piperidine-4,2′-quinazolin]-4′(3′H)-one] | 1 to 10 µM
COc1ccc(N2C(=O)c3ccc(Cl)cc3NC23CCN(Cc2cccc(C#N)c2)CC3)cc1 [Compound 75, 3-((7′-Chloro-3′-(4-methoxyphenyl)-4′-oxo-3′,4′-dihydro-1′H-spiro[piperidine-4,2′-quinazolin]-1-yl)methyl)benzonitrile] | 1 to 10 µM
COc1ccc(N2C(=O)c3ccccc3NC23CN(Cc2cccc(Cl)c2)C3)cc1 [Compound 76, 1-(3-Chlorobenzyl)-3′-(4-methoxyphenyl)-1′H-spiro[azetidine-3,2′-quinazolin]-4′(3′H)-one] | 1 to 10 µM
CC(=O)c1ccc2c(c1)NC1(CCN(Cc3ccc(F)c(F)c3)CC1)N(c1ccc(OC(F)(F)F)cc1)C2=O [Compound 77, 7′-Acetyl-1-(3,4-difluorobenzyl)-3′-(4-(trifluoromethoxy)phenyl)-1′H-spiro[piperidine-4,2′-quinazolin]-4′(3′H)-one] | 1 to 10 µM
O=C1c2ccc(F)cc2NC2(CN(C(c3ccc(F)c(F)c3)C(F)(F)F)C2)N1c1ccc(OC(F)(F)F)cc1 (stereo not drawn) [Compound 78, 1-(1-(3,4-Difluorophenyl)-2,2,2-trifluoroethyl)-7′-fluoro-3′-(4-(trifluoromethoxy)phenyl)-1′H-spiro[azetidine-3,2′-quinazolin]-4′(3′H)-one] | 1 to 10 µM
N#Cc1ccc2c(c1)NC1(CCN(Cc3ccc(F)c(F)c3)CC1)N(c1ccc(OC(F)(F)F)cc1)C2=O [Compound 79, 1-(3,4-Difluorobenzyl)-4′-oxo-3′-(4-(trifluoromethoxy)phenyl)-3′,4′-dihydro-1′H-spiro[piperidine-4,2′-quinazoline]-7′-carbonitrile] | 1 to 10 µM
COc1ccc(N2C(=O)c3ccccc3NC23CCN(Cc2cc(F)cc(F)c2)CC3)cc1 [Compound 80, 1-(3,5-Difluorobenzyl)-3′-(4-methoxyphenyl)-1′H-spiro[piperidine-4,2′-quinazolin]-4′(3′H)-one] | 1 to 10 µM
COc1ccc(N2C(=O)c3ccccc3NC23CN(Cc2ccccc2C(F)(F)F)C3)cc1 [Compound 81, 3′-(4-Methoxyphenyl)-1-(2-(trifluoromethyl)benzyl)-1′H-spiro[azetidine-3,2′-quinazolin]-4′(3′H)-one] | 1 to 10 µM
CC(c1ccc(F)cc1)N1CC2(C1)Nc1cc(F)ccc1C(=O)N2c1ccc(OC(F)(F)F)cc1 (stereo not drawn) [Compound 82, 7′-Fluoro-1-(1-(4-fluorophenyl)ethyl)-3′-(4-(trifluoromethoxy)phenyl)-1′H-spiro[azetidine-3,2′-quinazolin]-4′(3′H)-one] | 1 to 10 µM
COc1ccc(N2C(=O)c3ccc(N4CCCCC4)cc3NC23CCN(Cc2ccc(F)c(F)c2)CC3)cc1 [Compound 83, 1-(3,4-Difluorobenzyl)-3′-(4-methoxyphenyl)-7′-(piperidin-1-yl)-1′H-spiro[piperidine-4,2′-quinazolin]-4′(3′H)-one] | 1 to 10 µM
COc1ccc(N2C(=O)c3ccccc3NC23CN(Cc2ccccc2F)C3)cc1 [Compound 84, 1-(2-Fluorobenzyl)-3′-(4-methoxyphenyl)-1′H-spiro[azetidine-3,2′-quinazolin]-4′(3′H)-one] | 1 to 10 µM
COc1ccc(N2C(=O)c3ccccc3NC23CN(Cc2ccc(Cl)cc2)C3)cc1 [Compound 85, 1-(4-Chlorobenzyl)-3′-(4-methoxyphenyl)-1′H-spiro[azetidine-3,2′-quinazolin]-4′(3′H)-one] | 1 to 10 µM
COc1ccc(N2C(=O)c3ccccc3NC23CN(Cc2cccc4ccccc24)C3)cc1 [Compound 86, 3′-(4-Methoxyphenyl)-1-(naphthalen-1-ylmethyl)-1′H-spiro[azetidine-3,2′-quinazolin]-4′(3′H)-one] | 1 to 10 µM
CCOC(=O)c1ccc2c(c1)NC1(CN(C(C)c3ccc(F)cc3)C1)N(c1ccc(OC(F)(F)F)cc1)C2=O (stereo not drawn) [Compound 87, Ethyl 1-(1-(4-fluorophenyl)ethyl)-4′-oxo-3′-(4-(trifluoromethoxy)phenyl)-3′,4′-dihydro-1′H-spiro[azetidine-3,2′-quinazoline]-7′-carboxylate] | 1 to 10 µM
COc1ccc(N2C(=O)c3ccccc3NC23CCC(NC(=O)OC(C)(C)C)CC3)cc1 (stereo not drawn) [Compound 88, tert-Butyl (3′-(4-methoxyphenyl)-4′-oxo-3′,4′-dihydro-1′H-spiro[cyclohexane-1,2′-quinazolin]-4-yl)carbamate] | 1 to 10 µM
COc1ccc(N2C(=O)c3ccccc3NC23CN(Cc2cccc(C)c2)C3)cc1 [Compound 89, 3′-(4-Methoxyphenyl)-1-(3-methylbenzyl)-1′H-spiro[azetidine-3,2′-quinazolin]-4′(3′H)-one] | 1 to 10 µM
COc1ccc(N2C(=O)c3ccccc3NC23CN(Cc2ccc4ccccc4c2)C3)cc1 [Compound 90, 3′-(4-Methoxyphenyl)-1-(naphthalen-2-ylmethyl)-1′H-spiro[azetidine-3,2′-quinazolin]-4′(3′H)-one] | 1 to 10 µM

Structure (SMILES) | EC50
N#Cc1cccc(CN2CC3(C2)Nc2cc(C(F)(F)F)ccc2C(=O)N3c2ccc(OC(F)(F)F)cc2)c1 [Compound 91, 3-((4′-Oxo-3′-(4-(trifluoromethoxy)phenyl)-7′-(trifluoromethyl)-3′,4′-dihydro-1′H-spiro[azetidine-3,2′-quinazolin]-1-yl)methyl)benzonitrile] | 1 to 10 µM
COc1ccc(N2C(=O)c3ccccc3NC23CN(Cc2ccccc2)C3)cc1 [Compound 92, 1-Benzyl-3′-(4-methoxyphenyl)-1′H-spiro[azetidine-3,2′-quinazolin]-4′(3′H)-one] | 1 to 10 µM
COc1ccc(N2C(=O)c3ccccc3NC23CN(Cc2cccc(F)c2)C3)cc1 [Compound 93, 1-(3-Fluorobenzyl)-3′-(4-methoxyphenyl)-1′H-spiro[azetidine-3,2′-quinazolin]-4′(3′H)-one] | 1 to 10 µM
COc1ccc(N2C(=O)c3ccccc3NC23CN(Cc2ccccc2C)C3)cc1 [Compound 94, 3′-(4-Methoxyphenyl)-1-(2-methylbenzyl)-1′H-spiro[azetidine-3,2′-quinazolin]-4′(3′H)-one] | 1 to 10 µM
COc1ccc(N2C(=O)c3ccccc3NC23CN(Cc2c(F)cccc2F)C3)cc1 [Compound 95, 1-(2,6-Difluorobenzyl)-3′-(4-methoxyphenyl)-1′H-spiro[azetidine-3,2′-quinazolin]-4′(3′H)-one] | 1 to 10 µM
COc1ccc(N2C(=O)c3ccccc3NC23CCN(Cc2cccc(C(F)(F)F)c2)CC3)cc1 [Compound 96, 3′-(4-Methoxyphenyl)-1-(3-(trifluoromethyl)benzyl)-1′H-spiro[piperidine-4,2′-quinazolin]-4′(3′H)-one] | 1 to 10 µM
O=C1c2ccc(Br)cc2NC2(CCN(Cc3ccncc3)CC2)N1c1ccc(OC(F)(F)F)cc1 [Compound 97, 7′-Bromo-1-(pyridin-4-ylmethyl)-3′-(4-(trifluoromethoxy)phenyl)-1′H-spiro[piperidine-4,2′-quinazolin]-4′(3′H)-one] | 1 to 10 µM
COc1ccc(N2C(=O)c3ccccc3NC23CN(Cc2ccc(Cl)s2)C3)cc1 [Compound 98, 1-((5-Chlorothiophen-2-yl)methyl)-3′-(4-methoxyphenyl)-1′H-spiro[azetidine-3,2′-quinazolin]-4′(3′H)-one] | 1 to 10 µM
COCCOC(=O)c1ccc2c(c1)NC1(CCN(Cc3ccc(F)c(F)c3)CC1)N(c1ccc(OC(F)(F)F)cc1)C2=O [Compound 99, 2-Methoxyethyl 1-(3,4-difluorobenzyl)-4′-oxo-3′-(4-(trifluoromethoxy)phenyl)-3′,4′-dihydro-1′H-spiro[piperidine-4,2′-quinazoline]-7′-carboxylate] | 1 to 10 µM
COc1ccc(N2C(=O)c3ccc(OC)cc3NC23CCN(Cc2cccc(C#N)c2)CC3)cc1 [Compound 100, 3-((7′-Methoxy-3′-(4-methoxyphenyl)-4′-oxo-3′,4′-dihydro-1′H-spiro[piperidine-4,2′-quinazolin]-1-yl)methyl)benzonitrile] | 1 to 10 µM
COc1ccc(N2C(=O)c3ccccc3NC23CN(Cc2ccc(F)cc2)C3)cc1 [Compound 101, 1-(4-Fluorobenzyl)-3′-(4-methoxyphenyl)-1′H-spiro[azetidine-3,2′-quinazolin]-4′(3′H)-one] | 1 to 10 µM
O=C1c2ccc(Br)cc2NC2(CCN(Cc3ccc(F)c(F)c3)CC2)N1c1ccc(OC(F)(F)F)c(Cl)c1 [Compound 102, 7′-Bromo-3′-(3-chloro-4-(trifluoromethoxy)phenyl)-1-(3,4-difluorobenzyl)-1′H-spiro[piperidine-4,2′-quinazolin]-4′(3′H)-one] | 1 to 10 µM
O=C1c2ccc(Br)cc2NC2(CCN(Cc3ccccn3)CC2)N1c1ccc(OC(F)(F)F)cc1 [Compound 103, 7′-Bromo-1-(pyridin-2-ylmethyl)-3′-(4-(trifluoromethoxy)phenyl)-1′H-spiro[piperidine-4,2′-quinazolin]-4′(3′H)-one] | 1 to 10 µM
COc1ccc(N2C(=O)c3ccccc3NC23CCN(Cc2cccc(Cl)c2)CC3)cc1 [Compound 104, 1-(3-Chlorobenzyl)-3′-(4-methoxyphenyl)-1′H-spiro[piperidine-4,2′-quinazolin]-4′(3′H)-one] | 1 to 10 µM
COc1ccc(N2C(=O)c3ccccc3NC23CCN(Cc2cc(C)cc(C)c2)CC3)cc1 [Compound 105, 1-(3,5-Dimethylbenzyl)-3′-(4-methoxyphenyl)-1′H-spiro[piperidine-4,2′-quinazolin]-4′(3′H)-one] | 1 to 10 µM
COCCOc1ccc(N2C(=O)c3ccc(F)cc3NC23CCN(Cc2ccc(F)c(F)c2)CC3)cc1 [Compound 106, 1-(3,4-difluorobenzyl)-7′-fluoro-3′-(4-(2-methoxyethoxyl)phenyl)-1′H-spiro[piperidine-4,2′-quinazolin]-4′(3′H)-one] | 1 to 10 µM
